Assay type in all cases: in vivo, human
For one data set, the system named is patients with AF/AFL. The data set is described as follows: Pooled safety analysis of 5 controlled AF/AFL clinical studies, dronedarone 400 mg BID versus placebo. From the text:
(§1) The safety of dronedarone has been evaluated in a clinical development program that included, as of 12 Mar. 2008, a total of 8276 treated patients/healthy subjects in 55 completed studies. Of these, 4794 patients/healthy subjects received dronedarone.
Patients with the claimed indication of AF/AFL were included in 5 controlled clinical studies representing 88% (6285 patients) of the exposed patient population (7109 patients). Other patient populations, representing 14% (1028 patients) of the exposed patient population, were included in 13 clinical studies in patients with other cardiac conditions and patients with renal and hepatic impairment.
The safety profile of dronedarone 400 mg BID is derived from analysis of the 3282 patients in the 5 AF/AFL studies who were treated with dronedarone 400 mg BID and the 2875 who received placebo. The mean duration of exposure across the 5 studies in the dronedarone 400 mg BID group was 13.5 months, representing total exposure of 3684 patient-years. In the ATHENA study, the maximum follow-up was 30 months.
Discontinuation due to adverse reactions occurred in 11.8% of patients in the dronedarone 400 mg BID group and 7.7% in the placebo-treated group. The most common adverse events causing discontinuation of therapy with dronedarone 400 mg BID were gastrointestinal disorders (3.2% of patients versus 1.8% in the placebo group).

Data set [1] concerns patients with atrial fibrillation (AF) or atrial flutter (AFL) or a history of AF or AFL. Description: Clinical efficacy in patients with AF or AFL: cardiovascular hospitalization. The settings on record: 400 mg twice daily (BID).
Description: as §1

Data set [2] deals with patients with severe heart failure. Description: ANDROMEDA study, placebo-controlled, in patients with left ventricular dysfunction hospitalized with symptomatic HF. The following applies: versus placebo, patients with severe heart failure requiring recent hospitalization or referral. How it is done:
The present invention relates to the following identified and potential risk of dronedarone: mortality in patients with severe heart failure (HF) during treatment. The study referred to as ANDROMEDA was conducted in 627 patients with left ventricular dysfunction, hospitalized with symptomatic HF, requiring treatment with a diuretic, who have had within the last month at least 1 episode of dyspnea or fatigue at rest, or on slight exertion. […] The study was stopped prematurely due to an observed imbalance of deaths in the dronedarone group [n=25 versus 12 (placebo), p=0.027]. The main reason for death was worsening heart failure. Clinical judgment of the physician should guide the management plan of each patient based on individual benefit/risk assessment.

Each structure is given as a SMILES string.

With `CCCCc1oc2ccc(NS(C)(=O)=O)cc2c1C(=O)c1ccc(OCCCN(CCCC)CCCC)cc1` [dronedarone, 2-n-butyl-3-[4-(3-di-n-butylaminopropoxy)benzoyl]-5-methylsulfonamido-benzofuran], in the data set with patients with AF/AFL (dronedarone 400 mg BID), the “Most frequent investigation abnormalities” value is “QT prolongation and increase in serum creatinine”. The “Discontinuation due to adverse reactions” value with patients with AF/AFL (dronedarone 400 mg BID group, 5 AF/AFL studies, placebo 7.7%) is on record as 11.8 % of patients. Besides, in the data set with patients with AF/AFL (dronedarone 400 mg BID, 5 studies), the “Most frequent clinical adverse reactions” value was “diarrhea, nausea and vomiting, fatigue, asthenia, bradycardia, and rashes”. Further, the “Gastrointestinal disorders causing discontinuation of therapy (most common adverse events causing discontinuation)” value in the data set on patients with AF/AFL (dronedarone 400 mg BID, placebo 1.8%) is 3.2 % of patients. For the same compound, the “Effect of intrinsic factors (race, gender, age) on incidence of any treatment-emergent adverse events” value in the data set on patients with AF/AFL (subgroup assessment) was “did not suggest any excess of adverse events in a particular subgroup”. Also, the “Change in serum creatinine” value with patients with AF/AFL (within a week, does not reflect a change in underlying renal function) was “small change in serum creatinine”. Moreover, the “Reduction of the risk of cardiovascular hospitalization” value in data set [1] is reported as “effective for reduction of the risk of cardiovascular hospitalization”. Besides, the Increase in mortality entry in data set [2] is “greater than two-fold increase in mortality”.

Source of the values: patent publication US20130101972A1, “METHODS FOR REDUCING RISK” (SANOFI, priority 2009, published 2013).
